{"source": "ChEMBL document CHEMBL3045724", "about": "“Synthesis, biopharmaceutical characterization, and antimicrobial study of novel azo dyes of 7-hydroxy-4-methylcoumarin” (2013)", "format_in_all_cases": "functional", "key": {"[1]": {"system": "Aspergillus niger", "assay": "Antimicrobial activity against Aspergillus niger assessed as diameter of growth inhibition zone"}, "[2]": {"system": "Escherichia coli", "assay": "Antimicrobial activity against Escherichia coli assessed as diameter of growth inhibition zone after 48 hr by agar cup plate method"}, "[3]": {"system": "Salmonella typhi", "assay": "Antimicrobial activity against Salmonella enterica subsp. enterica serovar Typhi assessed as diameter of growth inhibition zone after 48 hr by agar cup plate method"}, "[4]": {"system": "Staphylococcus aureus", "assay": "Antimicrobial activity against Staphylococcus aureus assessed as diameter of growth inhibition zone after 48 hr by agar cup plate method"}, "[5]": {"system": "Bacillus subtilis", "assay": "Antimicrobial activity against Bacillus subtilis assessed as diameter of growth inhibition zone after 48 hr by agar cup plate method"}}, "data": [{"smiles": "Cc1c/c(=N/CC/N=c2/cc(C)c3ccc(O)c(/N=N/c4ccccn4)c3o2)oc2c(/N=N/c3ccccn3)c(O)ccc12", "values": [{"measurement": "inhibition zone (IZ)", "setting": "[1]", "result": ">15", "unit": "mm"}, {"measurement": "inhibition zone (IZ)", "setting": "[2]", "result": ">15", "unit": "mm"}, {"measurement": "inhibition zone (IZ)", "setting": "[3]", "result": ">15", "unit": "mm"}, {"measurement": "inhibition zone (IZ)", "setting": "[4]", "result": ">15", "unit": "mm"}, {"measurement": "inhibition zone (IZ)", "setting": "[5]", "result": ">15", "unit": "mm"}]}, {"smiles": "Cc1c/c(=N/CC/N=c2/cc(C)c3ccc(O)c(/N=N/c4cccnc4)c3o2)oc2c(/N=N/c3cccnc3)c(O)ccc12", "values": [{"measurement": "inhibition zone (IZ)", "setting": "[1]", "result": "<5", "unit": "mm"}, {"measurement": "inhibition zone (IZ)", "setting": "[2]", "result": 10, "unit": "mm"}, {"measurement": "inhibition zone (IZ)", "setting": "[3]", "result": ">15", "unit": "mm"}, {"measurement": "inhibition zone (IZ)", "setting": "[4]", "result": ">15", "unit": "mm"}, {"measurement": "inhibition zone (IZ)", "setting": "[5]", "result": ">15", "unit": "mm"}]}, {"smiles": "Cc1c/c(=N/CC/N=c2/cc(C)c3ccc(O)c(/N=N/c4ccncc4)c3o2)oc2c(/N=N/c3ccncc3)c(O)ccc12", "values": [{"measurement": "inhibition zone (IZ)", "setting": "[1]", "result": ">15", "unit": "mm"}, {"measurement": "inhibition zone (IZ)", "setting": "[2]", "result": ">15", "unit": "mm"}, {"measurement": "inhibition zone (IZ)", "setting": "[3]", "result": 10, "unit": "mm"}, {"measurement": "inhibition zone (IZ)", "setting": "[4]", "result": ">15", "unit": "mm"}, {"measurement": "inhibition zone (IZ)", "setting": "[5]", "result": 10, "unit": "mm"}]}, {"smiles": "Cc1c/c(=N/CC/N=c2/cc(C)c3ccc(O)c(/N=N/c4c(C)n(C)n(-c5ccccc5)c4=O)c3o2)oc2c(/N=N/c3c(C)n(C)n(-c4ccccc4)c3=O)c(O)ccc12", "values": [{"measurement": "inhibition zone (IZ)", "setting": "[1]", "result": ">15", "unit": "mm"}, {"measurement": "inhibition zone (IZ)", "setting": "[2]", "result": 10, "unit": "mm"}, {"measurement": "inhibition zone (IZ)", "setting": "[4]", "result": 10, "unit": "mm"}, {"measurement": "inhibition zone (IZ)", "setting": "[5]", "result": ">15", "unit": "mm"}]}, {"smiles": "Cc1c/c(=N/CC/N=c2/cc(C)c3ccc(O)c(/N=N/c4cccc5ccccc45)c3o2)oc2c(/N=N/c3cccc4ccccc34)c(O)ccc12", "values": [{"measurement": "inhibition zone (IZ)", "setting": "[1]", "result": ">15", "unit": "mm"}, {"measurement": "inhibition zone (IZ)", "setting": "[2]", "result": ">15", "unit": "mm"}, {"measurement": "inhibition zone (IZ)", "setting": "[3]", "result": ">15", "unit": "mm"}, {"measurement": "inhibition zone (IZ)", "setting": "[4]", "result": ">15", "unit": "mm"}, {"measurement": "inhibition zone (IZ)", "setting": "[5]", "result": ">15", "unit": "mm"}]}, {"smiles": "Cc1c/c(=N/CC/N=c2/cc(C)c3ccc(O)c(/N=N/C4=NCCS4)c3o2)oc2c(/N=N/C3=NCCS3)c(O)ccc12", "values": [{"measurement": "inhibition zone (IZ)", "setting": "[1]", "result": ">15", "unit": "mm"}, {"measurement": "inhibition zone (IZ)", "setting": "[2]", "result": ">15", "unit": "mm"}, {"measurement": "inhibition zone (IZ)", "setting": "[3]", "result": ">15", "unit": "mm"}, {"measurement": "inhibition zone (IZ)", "setting": "[4]", "result": ">15", "unit": "mm"}, {"measurement": "inhibition zone (IZ)", "setting": "[5]", "result": 10, "unit": "mm"}]}, {"smiles": "CC1(C)S[C@@H]2[C@H](NC(=O)[C@H](N)c3ccccc3)C(=O)N2[C@H]1C(=O)O", "note": "[AMPICILLIN]", "values": [{"measurement": "inhibition zone (IZ)", "setting": "[1]", "result": 10, "unit": "mm"}, {"measurement": "inhibition zone (IZ)", "setting": "[2]", "result": ">15", "unit": "mm"}, {"measurement": "inhibition zone (IZ)", "setting": "[3]", "result": ">15", "unit": "mm"}, {"measurement": "inhibition zone (IZ)", "setting": "[4]", "result": 10, "unit": "mm"}, {"measurement": "inhibition zone (IZ)", "setting": "[5]", "result": ">15", "unit": "mm"}]}, {"smiles": "CN[C@@H]1[C@H](O[C@H]2[C@H](O[C@H]3[C@H](O)[C@@H](O)[C@H](N=C(N)N)[C@@H](O)[C@@H]3N=C(N)N)O[C@@H](C)[C@]2(O)C=O)O[C@@H](CO)[C@H](O)[C@H]1O", "note": "[STREPTOMYCIN]", "values": [{"measurement": "inhibition zone (IZ)", "setting": "[1]", "result": ">15", "unit": "mm"}, {"measurement": "inhibition zone (IZ)", "setting": "[2]", "result": 10, "unit": "mm"}, {"measurement": "inhibition zone (IZ)", "setting": "[3]", "result": ">15", "unit": "mm"}, {"measurement": "inhibition zone (IZ)", "setting": "[4]", "result": ">15", "unit": "mm"}, {"measurement": "inhibition zone (IZ)", "setting": "[5]", "result": ">15", "unit": "mm"}]}]}
